Assay results taken from PMC8822749, “Ionotropic receptors in the turnip moth Agrotis segetum respond to repellent medium-chain fatty acids” (BMC Biology, 2022).

What was measured:
Experiment in all cases: two-electrode voltage clamp, Xenopus oocytes
Format in all cases: cell-based
AsegIR75p.1/AsegIR8a = target: T1, AsegIR75p.1/AsegIR8a (Agrotis segetum, UniProt Z9OWS8C5E7); settings: agonist; co-expressed with AsegIR8a; -80 mV; pH 7.6; 0.1% DMSO; 100 μM and dose-response
T1 construct: full-length cDNA in pCS2+, cRNA co-injected with AsegIR8a cRNA in Xenopus laevis oocytes; with Ionotropic receptor 8a
T1 sequence (Z9OWS8C5E7 1-676): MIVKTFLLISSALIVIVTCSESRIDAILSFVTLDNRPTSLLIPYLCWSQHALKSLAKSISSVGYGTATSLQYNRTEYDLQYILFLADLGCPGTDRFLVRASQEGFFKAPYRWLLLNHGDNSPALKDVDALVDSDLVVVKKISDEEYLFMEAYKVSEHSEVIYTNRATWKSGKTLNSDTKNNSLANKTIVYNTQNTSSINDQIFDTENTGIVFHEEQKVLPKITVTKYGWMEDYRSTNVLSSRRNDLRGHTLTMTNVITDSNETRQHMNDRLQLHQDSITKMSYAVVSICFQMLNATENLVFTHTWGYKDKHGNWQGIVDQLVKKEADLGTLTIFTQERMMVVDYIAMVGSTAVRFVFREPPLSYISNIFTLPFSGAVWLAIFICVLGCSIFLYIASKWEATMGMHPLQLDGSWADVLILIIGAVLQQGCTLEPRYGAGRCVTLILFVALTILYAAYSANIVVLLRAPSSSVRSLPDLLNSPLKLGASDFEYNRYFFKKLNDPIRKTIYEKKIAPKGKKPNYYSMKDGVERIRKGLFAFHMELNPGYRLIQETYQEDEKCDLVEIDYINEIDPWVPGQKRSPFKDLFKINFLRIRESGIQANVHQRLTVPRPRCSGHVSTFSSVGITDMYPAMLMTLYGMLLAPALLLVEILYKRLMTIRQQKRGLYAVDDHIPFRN

AsegIR75q.1/AsegIR8a [1] = target: T2, AsegIR75q.1/AsegIR8a (Agrotis segetum, UniProt Z9J2I4KL46); settings: agonist, weak; co-expressed with AsegIR8a; -80 mV; pH 7.6; 0.1% DMSO; 100 μM
T2 construct: full-length cDNA in pCS2+, cRNA co-injected with AsegIR8a cRNA in Xenopus laevis oocytes; with Ionotropic receptor 8a
T2 sequence (Z9J2I4KL46 1-637): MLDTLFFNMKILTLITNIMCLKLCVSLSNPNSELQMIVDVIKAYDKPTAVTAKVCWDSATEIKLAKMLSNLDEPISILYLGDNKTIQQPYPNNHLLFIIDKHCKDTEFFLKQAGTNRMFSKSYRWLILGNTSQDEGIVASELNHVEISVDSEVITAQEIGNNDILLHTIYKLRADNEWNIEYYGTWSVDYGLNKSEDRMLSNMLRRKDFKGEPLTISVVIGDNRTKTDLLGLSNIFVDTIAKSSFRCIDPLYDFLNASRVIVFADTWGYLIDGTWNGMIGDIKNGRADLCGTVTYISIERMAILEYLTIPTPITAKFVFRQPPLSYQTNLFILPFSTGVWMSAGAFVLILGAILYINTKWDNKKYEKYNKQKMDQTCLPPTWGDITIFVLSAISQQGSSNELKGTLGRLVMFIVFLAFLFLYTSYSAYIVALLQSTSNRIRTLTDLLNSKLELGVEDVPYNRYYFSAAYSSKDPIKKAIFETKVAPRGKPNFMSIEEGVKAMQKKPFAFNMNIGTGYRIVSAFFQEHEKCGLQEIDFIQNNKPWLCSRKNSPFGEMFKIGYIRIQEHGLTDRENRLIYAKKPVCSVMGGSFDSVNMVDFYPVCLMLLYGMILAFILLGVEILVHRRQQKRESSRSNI

AsegIR75q.1/AsegIR8a [2] = target: T2, AsegIR75q.1/AsegIR8a; settings: agonist; co-expressed with AsegIR8a; -80 mV; pH 7.6; 0.1% DMSO; dose-response

Structure (SMILES)	two-electrode voltage clamp, Xenopus oocytes (AsegIR75p.1/AsegIR8a)	two-electrode voltage clamp, Xenopus oocytes (AsegIR75q.1/AsegIR8a [1])	further results
CC/C=C\CCO [(Z)-3-hexenol]	hexanoic acid, followed by (Z)-3-hexenol, (E)-2-hexenal, and hexanal	–	–
CCCCCCC(=O)O [heptanoic acid]	–	This receptor also responded slightly to heptanoic acid and octanal	–
CCCCCC(=O)O [hexanoic acid]	The strongest response was elicited by hexanoic acid	–	–
CCCCCCCCC(=O)O [nonanoic acid]	–	–	threshold concentration (AsegIR75q.1/AsegIR8a [2]): 1 µM
CCCCCCCC=O [octanal]	–	This receptor also responded slightly to heptanoic acid and octanal	–
